Data: patent US11452725B2, “Chiral diaryl macrocycles and uses thereof” (TURNING POINT THERAPEUTICS, INC., priority 2015, dated 2022)
“Also recorded” adds a separate entry of the source.

Legend:
TXK = molecular target: T1, TXK (Homo sapiens, UniProt P42681); assay: Biochemical kinase assay (Reaction Biology); conditions: 10 μM ATP
T1 construct: purchased Reaction Biology Corporation

DDR2 = molecular target: T2, DDR2 (Homo sapiens, UniProt Q16832); assay: Biochemical kinase assay (Reaction Biology); conditions: 10 μM ATP
T2 construct: purchased Reaction Biology Corporation (contract assay)

EPHA1 = molecular target: T3, EPHA1 (Homo sapiens, UniProt P21709); assay: Biochemical kinase assay (Reaction Biology); conditions: 10 μM ATP
T3 construct: purchased Reaction Biology Corporation (contract assay)

GRK7 = molecular target: T4, GRK7 (Homo sapiens, UniProt Q8WTQ7); assay: Biochemical kinase assay (Reaction Biology); conditions: 10 μM ATP
T4 construct: purchased Reaction Biology Corporation (contract assay)

EPHA8 = molecular target: T5, EPHA8 (Homo sapiens, UniProt P29322); assay: Biochemical kinase assay (Reaction Biology); conditions: 10 μM ATP
T5 construct: purchased Reaction Biology Corporation (contract assay)

[1] = test system: Ba/F3 EML4-ALK L1196M cell line; assay: Cell proliferation assay (CellTiter-Glo); assay type: cell-based; conditions: Mus musculus, 72 hours
[2] = test system: Ba/F3 EML4-ALK F1174C cell line; assay: Cell proliferation assay (CellTiter-Glo); assay type: cell-based; conditions: Mus musculus, 72 hours
[3] = test system: Ba/F3 CD74-ROS1 G2032R cell line; assay: Cell proliferation assay (CellTiter-Glo); assay type: cell-based; conditions: Mus musculus, BaF3; 72 hours
Ba/F3 + IL3 parental = assay: Cell proliferation assay (CellTiter-Glo); assay type: cell-based; conditions: Mus musculus, BaF3; parental cells with IL3
Karpas-299 cells = assay: Apoptosis/caspase activity assay; assay type: cell-based; conditions: 48 hours treatment
Experimental: Karpas-299 cells were maintained in RPMI medium supplemented with 10% fetal bovine serum and antibiotics. Five hundred thousand cells per well were seeded in 12-well plate and various concentration of compounds were introduced and incubated for 48 hrs. The cells were then collected and lysed in a lysis buffer (20 mM HEPES, 150 mM NaCl, 10 mM KCl, 5 mM EDTA, 1% NP40) supplemented with Halt protease and phosphatase inhibitors (Thermo Scientific). For caspase assays, approximately 20 μg of cell lysate were incubated with 20 μl of caspase-3 glo reagent (Promega), and the enzyme activity was measured by the release of luminescence after 20 min incubation at 37° C. For western blotting, cell lysate were boiled and analyzed by SDS-PAGE/immunoblotting using anti-caspase-3 (Cell Signaling Technology), anti-PARP (Cell Signaling Technology), or anti-actin (Cell Signaling Technology) antibodies. Antibodies were typically incubated overnight at 4° C. with gentle shake, followed by washes and incubation with the appropriate HRP-conjugated secondary antibodies. Membranes were incubated with chemiluminescent substrate for 5 min at room temperature (SuperSignal West Femto, Thermo Scientific), and the chemiluminescent images were obtained with a C-DiGit Imaging System (LI-COR Biosciences).

CD44 = CD44 expression by immunoblotting in H2228 cells; assay type: cell-based, human; conditions: 48 hours treatment, 0-1000 nM
Experimental: NSCLC cell line H2228 (harboring endogenous EML4-ALK fusion gene) was cultured in RPMI medium supplemented with 10% fetal bovine serum and 100 U/mL of penicillin/streptomycin. Ba/F3 and NIH3T3 cells stably expressing ROS1, or TRKA, or TRKB, or TRKC (WT or mutant) were cultured as mentioned above. […] Cells were collected after treatment and lysed in RIPA buffer (50 mM Tris, pH 7.4, 150 mM NaCl, 1% NP-40, 0.5% Deoxycholate, 0.1% SDS) supplemented with 10 mM EDTA, 1× Halt protease and phosphatase inhibitors (Thermo Scientific). Protein lysates (approximately 20 μg) was resolved on 4-12% Bolt Bis-Tris precasted gels with MES running buffer (Life Technologies), transferred to nitrocellulose membranes using Trans-Blot Turbo Transfer System (Bio-Rad) and detected with antibodies targeting phosphorylated phosphorylated ROS1 and total ROS1 (Cell Signaling Technology), phosphorylated TRK A/B (Cell Signaling Technology), total TRKA antibody (Santa Cruz Biotechnology), phosphorylated SRC Y416 (Cell Signaling Technology), total SRC (Cell Signaling Technology), phosphorylated FAK Y576/577 (Cell Signaling Technology), total FAK (Cell Signaling Technology), phosphorylated paxillin Y118 (Cell Signaling Technology), total paxillin (Cell Signaling Technology), phosphorylated EGFR and total EGFR, CD44, and Tubulin (Sigma). […]

Karpas 299 tumors = assay: Karpas 299 ALCL subcutaneous xenograft model; assay type: in vivo, SCID/Beige mice; conditions: 50 mg/kg BID orally, seven days
KM12 tumors = assay: KM12 colorectal cancer subcutaneous xenograft model; assay type: in vivo, athymic nude mice; conditions: seven days
KM12 cell line = assay: cells; conditions: Homo sapiens, KM12, 72 h, read-out: Cell proliferation of KM12 cell line IC50
[4] = Example 13: 15 mg/kg BID orally
[5] = Example 13: 75 mg/kg BID orally

T1 sequence (P42681 whole entry): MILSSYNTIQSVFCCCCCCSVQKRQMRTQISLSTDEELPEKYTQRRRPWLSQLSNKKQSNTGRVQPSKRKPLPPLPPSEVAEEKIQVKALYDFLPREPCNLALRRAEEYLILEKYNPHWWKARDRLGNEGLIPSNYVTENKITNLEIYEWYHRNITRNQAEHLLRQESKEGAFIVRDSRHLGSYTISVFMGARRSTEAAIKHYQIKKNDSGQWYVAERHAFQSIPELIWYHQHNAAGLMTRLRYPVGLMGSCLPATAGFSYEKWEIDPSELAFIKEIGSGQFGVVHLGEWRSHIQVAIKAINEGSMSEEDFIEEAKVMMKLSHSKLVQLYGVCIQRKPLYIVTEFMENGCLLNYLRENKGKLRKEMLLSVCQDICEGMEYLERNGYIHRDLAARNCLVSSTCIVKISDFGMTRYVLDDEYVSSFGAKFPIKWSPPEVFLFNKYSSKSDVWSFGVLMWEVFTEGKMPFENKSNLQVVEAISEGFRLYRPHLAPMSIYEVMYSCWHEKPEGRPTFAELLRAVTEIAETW
T3 sequence (P21709 26-976): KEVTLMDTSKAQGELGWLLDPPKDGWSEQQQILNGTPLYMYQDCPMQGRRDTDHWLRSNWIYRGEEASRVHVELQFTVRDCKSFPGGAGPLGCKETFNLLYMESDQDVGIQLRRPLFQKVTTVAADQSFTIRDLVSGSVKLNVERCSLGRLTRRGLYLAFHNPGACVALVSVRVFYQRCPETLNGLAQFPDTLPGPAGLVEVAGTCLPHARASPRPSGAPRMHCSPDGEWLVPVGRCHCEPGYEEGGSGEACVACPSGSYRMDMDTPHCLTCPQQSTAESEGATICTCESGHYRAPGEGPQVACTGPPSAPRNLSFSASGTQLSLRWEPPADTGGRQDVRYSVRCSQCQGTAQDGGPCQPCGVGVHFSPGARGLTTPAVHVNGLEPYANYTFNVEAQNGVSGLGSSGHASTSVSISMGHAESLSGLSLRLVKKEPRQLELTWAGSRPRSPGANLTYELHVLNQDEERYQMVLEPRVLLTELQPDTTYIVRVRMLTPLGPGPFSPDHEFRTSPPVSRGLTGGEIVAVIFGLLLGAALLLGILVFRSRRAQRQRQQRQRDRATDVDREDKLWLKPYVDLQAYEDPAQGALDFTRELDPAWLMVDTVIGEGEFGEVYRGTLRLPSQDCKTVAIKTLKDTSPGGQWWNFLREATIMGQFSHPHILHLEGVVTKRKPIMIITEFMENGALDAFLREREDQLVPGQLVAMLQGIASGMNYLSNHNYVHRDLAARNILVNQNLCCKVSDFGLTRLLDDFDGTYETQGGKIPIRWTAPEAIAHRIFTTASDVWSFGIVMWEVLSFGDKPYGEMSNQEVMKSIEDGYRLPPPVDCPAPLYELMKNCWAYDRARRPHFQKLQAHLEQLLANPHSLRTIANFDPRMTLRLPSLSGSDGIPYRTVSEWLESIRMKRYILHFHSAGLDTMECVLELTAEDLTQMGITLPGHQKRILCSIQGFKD
T2 sequence (Q16832 22-855): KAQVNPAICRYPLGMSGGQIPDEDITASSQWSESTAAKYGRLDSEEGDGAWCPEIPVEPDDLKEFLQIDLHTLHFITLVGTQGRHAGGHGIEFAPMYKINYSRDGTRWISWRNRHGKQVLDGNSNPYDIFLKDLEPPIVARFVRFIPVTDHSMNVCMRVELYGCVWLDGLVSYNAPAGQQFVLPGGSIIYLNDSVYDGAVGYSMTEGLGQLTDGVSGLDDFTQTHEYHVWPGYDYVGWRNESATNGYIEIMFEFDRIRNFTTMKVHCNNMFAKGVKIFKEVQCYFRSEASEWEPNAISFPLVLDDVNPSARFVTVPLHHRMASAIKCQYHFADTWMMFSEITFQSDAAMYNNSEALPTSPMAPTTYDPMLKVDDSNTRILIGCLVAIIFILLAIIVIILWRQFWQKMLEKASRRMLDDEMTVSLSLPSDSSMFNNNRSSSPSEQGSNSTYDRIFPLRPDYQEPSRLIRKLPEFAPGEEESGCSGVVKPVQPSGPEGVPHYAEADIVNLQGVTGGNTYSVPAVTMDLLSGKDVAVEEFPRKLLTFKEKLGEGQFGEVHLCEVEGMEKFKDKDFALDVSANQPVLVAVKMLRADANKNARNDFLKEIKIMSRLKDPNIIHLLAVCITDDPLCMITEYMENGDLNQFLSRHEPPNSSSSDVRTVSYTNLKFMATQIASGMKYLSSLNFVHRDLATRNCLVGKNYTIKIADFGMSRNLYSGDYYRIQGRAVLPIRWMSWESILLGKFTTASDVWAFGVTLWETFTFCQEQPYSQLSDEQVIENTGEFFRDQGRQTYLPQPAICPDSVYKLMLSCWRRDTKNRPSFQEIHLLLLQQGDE
T5 sequence (P29322 28-1005): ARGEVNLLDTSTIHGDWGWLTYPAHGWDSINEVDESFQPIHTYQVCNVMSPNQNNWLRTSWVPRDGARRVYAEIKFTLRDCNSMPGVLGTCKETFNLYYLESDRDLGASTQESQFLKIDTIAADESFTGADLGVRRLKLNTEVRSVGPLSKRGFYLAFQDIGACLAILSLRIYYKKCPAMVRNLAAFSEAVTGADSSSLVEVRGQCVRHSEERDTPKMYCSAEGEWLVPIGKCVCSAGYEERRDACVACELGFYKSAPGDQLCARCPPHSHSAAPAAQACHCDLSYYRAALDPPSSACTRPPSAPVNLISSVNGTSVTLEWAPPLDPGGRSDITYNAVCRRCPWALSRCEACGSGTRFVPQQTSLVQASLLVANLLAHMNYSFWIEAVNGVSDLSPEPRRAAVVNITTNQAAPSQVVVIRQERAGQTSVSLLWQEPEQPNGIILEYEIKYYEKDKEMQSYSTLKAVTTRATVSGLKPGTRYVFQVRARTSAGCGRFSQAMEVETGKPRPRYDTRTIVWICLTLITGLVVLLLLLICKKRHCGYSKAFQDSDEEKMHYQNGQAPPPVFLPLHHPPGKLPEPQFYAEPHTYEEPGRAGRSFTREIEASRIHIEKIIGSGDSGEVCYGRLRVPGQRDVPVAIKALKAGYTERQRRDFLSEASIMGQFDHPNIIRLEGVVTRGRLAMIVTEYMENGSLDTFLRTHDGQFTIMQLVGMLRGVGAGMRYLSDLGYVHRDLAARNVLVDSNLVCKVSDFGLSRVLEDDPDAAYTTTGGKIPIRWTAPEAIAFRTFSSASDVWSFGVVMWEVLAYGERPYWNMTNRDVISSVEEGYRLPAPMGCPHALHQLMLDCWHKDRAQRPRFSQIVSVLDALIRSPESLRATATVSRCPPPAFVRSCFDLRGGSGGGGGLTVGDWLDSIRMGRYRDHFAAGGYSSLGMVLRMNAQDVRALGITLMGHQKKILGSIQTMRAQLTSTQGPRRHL
T4 sequence (Q8WTQ7 whole entry): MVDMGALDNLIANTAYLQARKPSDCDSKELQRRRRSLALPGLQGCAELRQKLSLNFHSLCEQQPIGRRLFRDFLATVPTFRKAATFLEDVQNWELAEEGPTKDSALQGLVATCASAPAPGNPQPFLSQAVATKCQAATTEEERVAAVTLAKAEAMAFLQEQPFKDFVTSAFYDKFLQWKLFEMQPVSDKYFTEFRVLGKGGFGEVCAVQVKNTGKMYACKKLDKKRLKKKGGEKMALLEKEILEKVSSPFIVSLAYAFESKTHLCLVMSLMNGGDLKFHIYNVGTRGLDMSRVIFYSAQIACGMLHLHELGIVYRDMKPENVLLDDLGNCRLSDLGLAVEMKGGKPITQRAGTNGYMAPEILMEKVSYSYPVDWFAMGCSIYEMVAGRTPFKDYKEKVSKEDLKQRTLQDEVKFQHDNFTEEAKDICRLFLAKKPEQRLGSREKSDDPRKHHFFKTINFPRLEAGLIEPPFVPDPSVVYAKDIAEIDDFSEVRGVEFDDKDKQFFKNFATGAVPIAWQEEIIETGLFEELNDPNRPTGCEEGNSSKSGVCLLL

`C[C@H]1CNC(=O)c2cnn3ccc(nc23)N[C@H](C)c2cc(F)ccc2O1` [Compound 1, (7S,13R)-11-fluoro-7,13-dimethyl-6,7,13,14-tetrahydro-1,15-ethenopyrazolo[4,3-f][1,4,8,10]benzoxatriazacyclotridecin-4(5H)-one] showed an IC50 (TXK) of 0.00317 µM, an IC50 (DDR2) of 0.023 µM and an IC50 (EPHA1) of 0.025 µM. For the same molecule, the IC50 (GRK7) was 0.0352 µM, the IC50 (EPHA8) was 0.0502 µM and the IC50 [1] was 0.05 µM. The IC50 [2] was 0.054 µM, the IC50 [3] was […] and the IC50 (Ba/F3 + IL3 parental) was 1.24 µM. For the same molecule, the “apoptosis of Karpas-299 cells (caspase 3/7 glo, PARP western blotting)” value (Karpas-299 cells) was “increased the number of apoptotic Karpas-299 cells”, the CD44 expression level (CD44) was “down-regulates CD44 expression; also recorded: suppressed CD44 expression level in H2228 cells in a concentration-dependent manner” and the “mice exhibiting tumor regression” value (Karpas 299 tumors) was 4 of 8. For the same molecule, the “mice exhibiting tumor regression” value (KM12 tumors; [4]) was 8 of 8, the “tumor regression (REG)” value (KM12 tumors; [4]) was 13% and the “mice exhibiting tumor regression” value (KM12 tumors; [5]) was 5 of 8. The “tumor regression (REG)” value (KM12 tumors; [5]) was 11%, the “Tumor growth inhibition (TGI)” value (KM12 tumors; Example 15: 1 mg/kg BID orally) was 77% and the “mice exhibiting tumor regression” value (KM12 tumors; Example 15: 3 mg/kg BID orally) was 2 of 10. The “mice exhibiting tumor regression” value (KM12 tumors; Example 15: 15 mg/kg BID orally) was 5 of 10, the “tumor regression (REG)” value (KM12 tumors; Example 15 dose dependent study: 15 mg/kg BID orally) was 1% and the IC50 (KM12 cell line) was 0.0003 µM.
